Data: ChEMBL document CHEMBL1201862, “PubChem BioAssay data set” (2004)
Each block holds one molecule with its values, some of them ahead of it. Active and inactive are the calls of the source.

Key:
[1] = target: T1, Tyrosine-protein phosphatase non-receptor type 7 (Homo sapiens, UniProt P35236); assay: inhibitors of human HePTP phosphatase, […], biochemical, absorbance, leukemia target (AID 521); format: functional
T1 sequence (P35236 whole entry): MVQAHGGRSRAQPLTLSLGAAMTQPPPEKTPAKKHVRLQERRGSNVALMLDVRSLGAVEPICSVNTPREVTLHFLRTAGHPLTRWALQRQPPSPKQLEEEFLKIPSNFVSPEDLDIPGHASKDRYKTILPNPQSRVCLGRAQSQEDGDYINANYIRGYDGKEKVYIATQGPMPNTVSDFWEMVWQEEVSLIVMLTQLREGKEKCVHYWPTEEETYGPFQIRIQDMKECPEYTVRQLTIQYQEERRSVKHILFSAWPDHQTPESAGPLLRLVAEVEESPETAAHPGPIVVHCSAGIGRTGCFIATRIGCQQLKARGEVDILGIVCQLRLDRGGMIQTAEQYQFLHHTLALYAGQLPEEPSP

[2] = target: Luciferin 4-monooxygenase (Photinus pyralis, UniProt P08659); assay: firefly luciferase enzyme inhibitors, dose response, biochemical, luminescence (AID 1891)
Luciferin 4-monooxygenase, sequence (P08659 whole entry): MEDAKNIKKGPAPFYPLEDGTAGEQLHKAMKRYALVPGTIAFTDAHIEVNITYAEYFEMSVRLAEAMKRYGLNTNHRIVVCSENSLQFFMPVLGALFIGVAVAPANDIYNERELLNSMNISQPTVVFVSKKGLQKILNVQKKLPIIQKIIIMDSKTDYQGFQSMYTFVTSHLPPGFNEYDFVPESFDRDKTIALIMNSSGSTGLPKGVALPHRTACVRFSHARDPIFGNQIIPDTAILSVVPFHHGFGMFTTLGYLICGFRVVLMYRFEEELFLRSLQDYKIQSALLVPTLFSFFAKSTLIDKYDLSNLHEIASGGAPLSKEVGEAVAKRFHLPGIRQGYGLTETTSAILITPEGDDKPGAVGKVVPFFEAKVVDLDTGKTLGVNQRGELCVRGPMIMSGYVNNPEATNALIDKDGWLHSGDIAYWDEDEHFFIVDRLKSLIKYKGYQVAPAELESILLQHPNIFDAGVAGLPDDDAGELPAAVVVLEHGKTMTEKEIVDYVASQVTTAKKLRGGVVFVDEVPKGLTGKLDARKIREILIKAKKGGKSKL

[3] = Luminescence Cell-Based Dose Confirmation HTS to Identify Inhibitors of Platelet Dense Granule Release. [Related pubchem assays: 1663 (Primary HTS), 1678 (Summary of Project)]; format: functional
[4] = Fluorescence Cell-Based Dose Response to Identify Inhibitors of Thrombin Receptor-Activating Peptide SFLLRN-Mediated P-Selectin Induction on Platelets. [Related pubchem assays: 1663 (Primary HTS), 1889 (retest at dose ), 1891 (counterscreen), 1678 (Project Summary)]; format: functional
[5] = target: Peroxisome proliferator-activated receptor gamma/Nuclear receptor corepressor 2 (Homo sapiens, UniProt P37231+Q9Y618); assay: Counterscreen for NR2E3 inverse agonists: TR-FRET-based biochemical high throughput dose response assay to identify inverse agonists of the interaction between peroxisome proliferator-activated receptor gamma (PPARg) and nuclear receptor co-repressor 2 (NCOR2).; format: functional
Peroxisome proliferator-activated receptor gamma/Nuclear receptor corepressor 2, sequence (P37231 whole entry): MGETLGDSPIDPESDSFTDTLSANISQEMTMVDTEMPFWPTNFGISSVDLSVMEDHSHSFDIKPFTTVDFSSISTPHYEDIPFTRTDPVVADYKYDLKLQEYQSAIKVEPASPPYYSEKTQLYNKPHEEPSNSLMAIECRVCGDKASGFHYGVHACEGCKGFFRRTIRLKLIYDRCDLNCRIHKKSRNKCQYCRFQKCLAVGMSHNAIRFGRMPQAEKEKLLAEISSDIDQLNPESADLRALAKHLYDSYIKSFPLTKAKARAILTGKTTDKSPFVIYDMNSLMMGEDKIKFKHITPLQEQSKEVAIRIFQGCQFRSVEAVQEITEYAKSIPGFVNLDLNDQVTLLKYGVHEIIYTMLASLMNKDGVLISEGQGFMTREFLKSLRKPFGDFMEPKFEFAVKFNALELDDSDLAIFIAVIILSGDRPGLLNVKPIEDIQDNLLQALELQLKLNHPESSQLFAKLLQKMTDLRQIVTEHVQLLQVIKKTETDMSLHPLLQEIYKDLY
Peroxisome proliferator-activated receptor gamma/Nuclear receptor corepressor 2, sequence (Q9Y618 whole entry): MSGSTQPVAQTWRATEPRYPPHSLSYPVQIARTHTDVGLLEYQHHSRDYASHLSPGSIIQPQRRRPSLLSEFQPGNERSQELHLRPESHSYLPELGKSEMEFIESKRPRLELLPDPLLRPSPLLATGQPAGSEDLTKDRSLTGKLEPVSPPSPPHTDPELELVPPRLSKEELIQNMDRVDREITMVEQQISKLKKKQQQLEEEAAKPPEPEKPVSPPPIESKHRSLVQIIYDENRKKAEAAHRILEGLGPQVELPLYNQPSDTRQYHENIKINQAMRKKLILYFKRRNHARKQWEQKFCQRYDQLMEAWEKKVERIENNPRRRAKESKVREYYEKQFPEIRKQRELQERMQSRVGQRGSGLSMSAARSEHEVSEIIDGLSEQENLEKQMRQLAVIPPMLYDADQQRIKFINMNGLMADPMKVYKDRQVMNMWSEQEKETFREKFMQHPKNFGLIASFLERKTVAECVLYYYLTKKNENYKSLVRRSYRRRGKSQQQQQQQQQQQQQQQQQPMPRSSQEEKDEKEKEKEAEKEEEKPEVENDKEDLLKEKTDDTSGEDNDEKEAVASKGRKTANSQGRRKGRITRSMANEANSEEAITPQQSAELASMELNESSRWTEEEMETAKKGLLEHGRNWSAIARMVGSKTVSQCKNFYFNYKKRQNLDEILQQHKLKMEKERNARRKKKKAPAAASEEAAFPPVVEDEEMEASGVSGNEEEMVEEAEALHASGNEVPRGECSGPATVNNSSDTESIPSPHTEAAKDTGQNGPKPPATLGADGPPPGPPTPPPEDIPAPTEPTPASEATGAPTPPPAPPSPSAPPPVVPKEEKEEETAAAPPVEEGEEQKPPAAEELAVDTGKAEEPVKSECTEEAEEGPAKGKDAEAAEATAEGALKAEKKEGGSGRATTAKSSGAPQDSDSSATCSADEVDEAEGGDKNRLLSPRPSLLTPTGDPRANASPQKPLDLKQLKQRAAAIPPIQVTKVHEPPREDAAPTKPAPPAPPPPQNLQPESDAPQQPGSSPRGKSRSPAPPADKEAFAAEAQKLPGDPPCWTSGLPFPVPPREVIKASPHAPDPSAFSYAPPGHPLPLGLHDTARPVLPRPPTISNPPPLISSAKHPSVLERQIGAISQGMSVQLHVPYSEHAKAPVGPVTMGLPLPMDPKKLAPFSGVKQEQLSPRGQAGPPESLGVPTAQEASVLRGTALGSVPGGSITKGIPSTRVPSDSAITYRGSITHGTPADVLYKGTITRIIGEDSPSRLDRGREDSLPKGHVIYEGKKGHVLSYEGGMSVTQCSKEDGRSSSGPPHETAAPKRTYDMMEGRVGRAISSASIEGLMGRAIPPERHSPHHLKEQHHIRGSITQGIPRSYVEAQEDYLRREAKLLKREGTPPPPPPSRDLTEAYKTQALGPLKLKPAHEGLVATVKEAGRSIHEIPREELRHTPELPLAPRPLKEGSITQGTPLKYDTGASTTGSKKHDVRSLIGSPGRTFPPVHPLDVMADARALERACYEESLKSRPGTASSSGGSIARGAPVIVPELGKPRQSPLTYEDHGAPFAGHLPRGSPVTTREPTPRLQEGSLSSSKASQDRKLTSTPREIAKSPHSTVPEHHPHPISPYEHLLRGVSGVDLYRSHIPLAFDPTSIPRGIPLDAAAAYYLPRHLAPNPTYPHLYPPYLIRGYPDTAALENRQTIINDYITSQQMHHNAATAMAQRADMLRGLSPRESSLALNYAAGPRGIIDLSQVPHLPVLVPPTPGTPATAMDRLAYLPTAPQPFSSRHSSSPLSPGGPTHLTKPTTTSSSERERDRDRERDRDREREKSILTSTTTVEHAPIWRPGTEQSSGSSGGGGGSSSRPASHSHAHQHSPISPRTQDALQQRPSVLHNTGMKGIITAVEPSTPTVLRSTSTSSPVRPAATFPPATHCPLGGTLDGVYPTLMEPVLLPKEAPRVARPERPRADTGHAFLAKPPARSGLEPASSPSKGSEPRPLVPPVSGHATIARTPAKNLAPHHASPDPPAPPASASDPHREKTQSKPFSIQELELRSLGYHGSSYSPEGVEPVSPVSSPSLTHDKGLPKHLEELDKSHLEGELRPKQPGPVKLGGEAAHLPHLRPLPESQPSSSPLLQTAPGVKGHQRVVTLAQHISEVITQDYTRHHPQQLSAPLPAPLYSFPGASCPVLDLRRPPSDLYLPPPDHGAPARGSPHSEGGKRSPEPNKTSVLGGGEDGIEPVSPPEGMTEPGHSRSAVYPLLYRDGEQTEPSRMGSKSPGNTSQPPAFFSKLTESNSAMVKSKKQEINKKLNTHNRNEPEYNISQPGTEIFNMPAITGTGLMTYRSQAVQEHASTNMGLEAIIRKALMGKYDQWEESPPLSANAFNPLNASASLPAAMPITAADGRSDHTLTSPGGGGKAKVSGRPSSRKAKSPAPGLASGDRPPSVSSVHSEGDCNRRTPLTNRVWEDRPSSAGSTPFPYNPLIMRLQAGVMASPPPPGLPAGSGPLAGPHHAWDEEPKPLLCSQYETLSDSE

[6] = target: Photoreceptor-specific nuclear receptor (Homo sapiens, UniProt Q9Y5X4); assay: NR2E3 inverse agonists, dose response, biochemical, TR-FRET (AID 463256); format: functional
[7] = Luminescence Cell-Based Dose Retest to Confirm Inhibitors of Cancer Stem Cells. [Related pubchem assays (depositor defined):AID2717, AID2721]; format: functional; settings: Homo sapiens
[8] = HeLa 2N DNA content increase, dose response, cell-based, IC50 (AID 1117349); format: functional
[9] = Concentration-dependent survival of SW480 colon cancer line, luminescence detection with CellTiter-Glo, half-maximal inhibitory concentration (AID 1117338); format: functional
[10] = RKO cell viability reduction, dose response, CellTiter-Glo luminescence (AID 1117322); format: functional
[11] = cytotoxicity toward HCT116 cells – cell-based, CellTiter-Glo luminescence, IC50, dose response (AID 1117332); format: functional; settings: HCT-116
[12] = SNU-C1 cell viability reduction, dose response, CellTiter-Glo luminescence (AID 1117323); format: functional, cell-based
[13] = cytotoxicity toward Colo320 cells – cell-based, CellTiter-Glo luminescence, IC50, dose response (AID 1117334); format: functional; settings: COLO 320
[14] = HeLa 4N DNA content increase, dose response, cell-based, IC50 (AID 1117351); format: functional
[15] = cytotoxicity toward HT-29 cells – cell-based, CellTiter-Glo luminescence, IC50, dose response (AID 1117330); format: functional
[16] = CellTiter-Glo luminescent dose response of DLD-1 viability loss (AID 1117352); format: functional
[17] = HCT116 cell viability decrease, GSK3B pretreatment – CellTiter-Glo, IC50, dose response (AID 1117339); format: functional; settings: HCT-116
[18] = TRPM1 promoter luciferase reporter signal decrease, dose response, MITF inhibitor project, cell-based, SK-MEL-5, dry powder, set 9 (AID 651588); format: functional
[19] = A375 melanoma cell viability loss, dose response, counter-screen for MITF inhibitor project, CellTiter-Glo luminescence, dry powder, set 4 (AID 624364); format: functional, cell-based; settings: A-375;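 note: A375 melanoma cells are MITF independent so this is a counter screen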
[20] = A375 melanoma cell cytotoxicity, dose response, counter-screen for MITF inhibitor project, CellTiter-Glo luminescence, dry powder, set 7 (AID 624490); format: functional, cell-based; settings: A-375
[21] = MITF Orthogonal Assay: MALME3 CTG Assay Measured in Cell-Based System Using Plate Reader - 2084-04_Inhibitor_Dose_DryPowder_Activity_Set6.; format: functional; settings: MALME-3
[22] = SK-MEL-5 parental cell viability reduction, dose response, orthogonal assay for MITF inhibitor project, CellTiter-Glo luminescence, dry powder, set 8 (AID 651586); format: functional, cell-based
[23] = MALME3 melanoma cell viability reduction, dose response, orthogonal assay for MITF inhibitor project, CellTiter-Glo luminescence, dry powder, set 5 (AID 651584); format: functional, cell-based; settings: MALME-3
[24] = SK-MEL-5 parental line viability, dose response, MITF inhibitor project, cell-based, CellTiter-Glo, dry powder, set 6 (AID 624429); format: functional
[25] = MITF Orthogonal Assay: SK-MEL-5 CTG Assay Measured in Cell-Based System Using Plate Reader - 2084-02_Inhibitor_Dose_DryPowder_Activity_Set5.; format: functional
[26] = A375 melanoma cell cytotoxicity, dose response, counter-screen for MITF inhibitor project, CellTiter-Glo luminescence, dry powder, set 6 (AID 624488); format: functional, cell-based; settings: A-375
[27] = A375 melanoma cell viability loss, dose response, counter-screen for MITF modulator project, CellTiter-Glo luminescence, dry powder, set 9 (AID 651591); format: functional, cell-based; settings: A-375
[28] = MITF Measured in Cell-Based System Using Plate Reader - 2084-01_Inhibitor_Dose_DryPowder_Activity_Set6.; format: functional
[29] = A375 melanoma cell cytotoxicity, dose response, counter-screen for MITF inhibitor project, CellTiter-Glo luminescence, dry powder, set 2 (AID 624489); format: functional, cell-based; settings: A-375;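 note: actives are compounds lowering A375 viability meaning general cytotoxicity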
[30] = MITF Measured in Cell-Based System Using Plate Reader - 2084-01_Inhibitor_Dose_DryPowder_Activity_Set7.; format: functional
[31] = cytotoxicity in primary human melanocytes, dose response, cytotoxicity control, cell-based, plate reader, dry powder (AID 651920); format: functional
Phospholipase D2 = Phospholipase D2 (Homo sapiens, UniProt O14939); assay: PLD2 Cellular Concentration Response Study.; format: functional
Phospholipase D2, sequence (O14939 whole entry): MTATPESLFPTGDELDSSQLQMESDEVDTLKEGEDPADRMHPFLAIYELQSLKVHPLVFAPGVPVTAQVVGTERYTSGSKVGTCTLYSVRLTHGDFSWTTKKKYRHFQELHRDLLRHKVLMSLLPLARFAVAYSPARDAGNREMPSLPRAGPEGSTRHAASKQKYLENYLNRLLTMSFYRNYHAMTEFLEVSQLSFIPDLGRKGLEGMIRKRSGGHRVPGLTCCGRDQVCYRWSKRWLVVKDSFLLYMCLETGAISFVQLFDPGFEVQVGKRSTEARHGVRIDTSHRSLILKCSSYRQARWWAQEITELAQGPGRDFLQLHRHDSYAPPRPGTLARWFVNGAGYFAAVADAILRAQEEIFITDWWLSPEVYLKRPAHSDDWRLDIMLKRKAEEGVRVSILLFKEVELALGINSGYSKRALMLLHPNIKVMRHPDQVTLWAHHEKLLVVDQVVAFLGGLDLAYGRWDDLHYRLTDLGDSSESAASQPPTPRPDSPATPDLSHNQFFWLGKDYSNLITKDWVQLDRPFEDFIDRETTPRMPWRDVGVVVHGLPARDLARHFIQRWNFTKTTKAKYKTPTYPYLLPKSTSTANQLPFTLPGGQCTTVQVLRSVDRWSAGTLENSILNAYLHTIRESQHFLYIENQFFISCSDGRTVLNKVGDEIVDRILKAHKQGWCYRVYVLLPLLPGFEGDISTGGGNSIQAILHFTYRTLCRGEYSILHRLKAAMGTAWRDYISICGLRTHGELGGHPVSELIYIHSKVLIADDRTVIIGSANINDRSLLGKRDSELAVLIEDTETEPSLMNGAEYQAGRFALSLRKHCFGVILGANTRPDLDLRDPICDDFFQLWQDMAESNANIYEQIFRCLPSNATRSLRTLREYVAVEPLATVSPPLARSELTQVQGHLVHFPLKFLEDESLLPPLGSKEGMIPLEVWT

Phospholipase D1 = Phospholipase D1 (Homo sapiens, UniProt Q13393); assay: PLD1 Cellular Concentration Response Study.; format: functional
[32] = target: G-protein coupled receptor 183 (Homo sapiens, UniProt P32249); assay: SAR confirmation of small molecule antagonists of the EBI2 receptor via a luminescent beta-arrestin assa.; format: functional
G-protein coupled receptor 183, sequence (P32249 whole entry): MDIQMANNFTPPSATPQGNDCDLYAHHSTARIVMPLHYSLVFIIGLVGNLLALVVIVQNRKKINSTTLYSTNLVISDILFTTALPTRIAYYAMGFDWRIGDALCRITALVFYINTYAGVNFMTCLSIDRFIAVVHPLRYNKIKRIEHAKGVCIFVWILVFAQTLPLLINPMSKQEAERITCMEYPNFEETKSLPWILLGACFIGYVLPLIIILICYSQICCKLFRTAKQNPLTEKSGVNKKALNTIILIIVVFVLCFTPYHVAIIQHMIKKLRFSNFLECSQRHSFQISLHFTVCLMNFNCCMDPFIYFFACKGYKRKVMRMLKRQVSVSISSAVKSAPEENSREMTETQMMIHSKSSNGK

IC50 [1]: > 100 µM (not active)
Structure (SMILES): Cc1c(C(=O)N2CCOCC2)[nH]c2ccc(OCc3ccccc3)cc12

Structure (SMILES): COc1cc2c(cc1OC)-c1cc(N3CCCCCC3)nc(=O)n1CC2
EC50 [2]: > 112 µM (not active)
EC50 [3]: 1.66 µM (active)
EC50 [4]: < 0.3 µM (active)

IC50 [5]: 1.67 µM (active)
IC50 [6]: 2.61 µM (active)
Structure (SMILES): Cn1c(SCC(=O)Nc2cccc(F)c2)nnc1-c1cc2ccccc2o1

Structure (SMILES): O=C1[C@H]2CCCC[C@H]2C(=O)N1CCCCN1CCN(c2nsc3ccccc23)CC1
AC50 [7]: 3.47 µM (active)
IC50 [8]: > 10 µM (inactive)
IC50 [9]: 5.91 µM (inactive)
IC50 [10]: 0.546 µM (active)
IC50 [11]: 2.06 µM (active)
IC50 [12]: 9.37 µM (inactive)
IC50 [13]: 13.2 µM (inactive)
IC50 [14]: > 10 µM (inactive)
IC50 [15]: 2.01 µM (active)
IC50 [16]: 8.24 µM (inactive)
IC50 [17]: 1.67 µM (active)

Structure (SMILES): COC1=C(NS(=O)(=O)c2ccccc2)C(=O)c2ccccc2C1=O
AC50 [18]: 18.9 µM (active)
AC50 [19]: > 70 µM (inactive)
AC50 [20]: > 70 µM (inactive)
AC50 [21]: 31.8 µM (active)
AC50 [22]: 14.5 µM (active)
AC50 [23]: 31.8 µM (active)
AC50 [24]: 16.4 µM (active)
AC50 [25]: 9.13 µM (active)
AC50 [26]: > 70 µM (inactive)
AC50 [27]: > 70 µM (inactive)
AC50 [28]: 6.32 µM (active)
AC50 [29]: > 70 µM (inactive)
AC50 [30]: 7.44 µM (active)
AC50 [31]: 27.5 µM (active)

Structure (SMILES): O=C(NCCN1CCC2(CC1)C(=O)NCN2Cc1ccncc1)c1ccc2ccccc2c1
IC50 (Phospholipase D2): 0.85 µM (active)
IC50 (Phospholipase D1): 20 µM (active)

Structure (SMILES): O=C(/C=C/c1ccccc1)N1CCN(Cc2ccc(Cl)cc2)CC1
IC50 [32]: 0.0984 µM (active)
